According to ChEMBL document CHEMBL1201862, “PubChem BioAssay data set” (2004):
Several values for one entry are separate records, joined by “and”; a condition that tells them apart may be missing. Equal values may be shown once.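 Briefly, cells in 96-well plates were exposed to five compound concentrations for 48 h, and endpoints were estimated by linear interpolation. The concentration for 50% growth inhibition is given as GI50.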 Activity calls are given as the source filed them. No stated cut-off is given here; in the data, active = GI50 up to about 1.1 µM and inactive = higher.

Assays:
Test in all cases: DTP human tumour cell line panel, 48 h
786-0 = system: 786-0
A498 = system: A498
A549 = system: A549
ACHN = system: ACHN
CAKI-1 = system: CAKI-1
CCRF-CEM = system: CCRF-CEM
COLO 205 = system: COLO 205
DLD-1 = system: DLD-1
DMS-273 = system: DMS-273
EKVX = system: EKVX
HCT-116 = system: HCT-116
HOP-18 = system: HOP-18
HOP-92 = system: HOP-92
IGROV-1 = system: IGROV-1
K562 = system: K562
KM-20L2 = system: KM-20L2
LXFL 529 = system: LXFL 529
M14 = system: M14
MOLT-4 = system: MOLT-4
Malme-3M = system: Malme-3M
NCI-H460 = system: NCI-H460
NCI-H522 = system: NCI-H522
OVCAR-3 = system: OVCAR-3
OVCAR-4 = system: OVCAR-4
OVCAR-8 = system: OVCAR-8
RPMI-8226 = system: RPMI-8226
RXF 393 = system: RXF 393
RXF 631 = system: RXF 631
SF-295 = system: SF-295
SF-539 = system: SF-539
SK-MEL-5 = system: SK-MEL-5
SN12C = system: SN12C
SR = system: SR
SW-620 = system: SW-620
TK-10 = system: TK-10
UACC-257 = system: UACC-257
UO-31 = system: UO-31
HCC 2998 = system: HCC 2998
HL-60 = system: HL-60
HOP-62 = system: HOP-62
HT-29 = system: HT-29
LOX IMVI = system: LOX IMVI
MCF7 = system: MCF7
NCI-H226 = system: NCI-H226
NCI-H23 = system: NCI-H23
NCI/ADR-RES = system: NCI/ADR-RES
SF-268 = system: SF-268
SK-MEL-28 = system: SK-MEL-28
SK-MEL-2 = system: SK-MEL-2
SK-OV-3 = system: SK-OV-3
SNB-19 = system: SNB-19
SNB-75 = system: SNB-75
SNB-78 = system: SNB-78
UACC-62 = system: UACC-62
DMS-114 = system: DMS-114
HCT-15 = system: HCT-15
KM12 = system: KM12
M19-MEL = system: M19-MEL
OVCAR-5 = system: OVCAR-5
U-251 = system: U-251
XF498 = system: XF498

CC(C)(C)OC(=O)N1N=NC2C3CC(=O)C(O3)C21 (centres undefined)
GI50 (786-0): > 100 µM (inactive)
GI50 (A498): > 100 µM (inactive)
GI50 (A549): > 100 µM (inactive)
GI50 (ACHN): > 100 µM (inactive)
GI50 (CAKI-1): > 100 µM (inactive)
GI50 (CCRF-CEM): > 100 µM (inactive)
GI50 (COLO 205): > 10 µM (inactive)
GI50 (DLD-1): > 100 µM (inactive)
GI50 (DMS-273): > 100 µM (inactive)
GI50 (EKVX): > 100 µM (inactive)
GI50 (HCT-116): > 10 µM (inactive)
GI50 (HOP-18): > 100 µM (inactive)
GI50 (HOP-92): > 100 µM (inactive)
GI50 (IGROV-1): > 100 µM (inactive)
GI50 (K562): > 100 µM (inactive)
GI50 (KM-20L2): > 100 µM (inactive)
GI50 (LXFL 529): > 100 µM (inactive)
GI50 (M14): > 100 µM (inactive)
GI50 (MOLT-4): > 100 µM (inactive)
GI50 (Malme-3M): > 100 µM (inactive)
GI50 (NCI-H460): > 100 µM (inactive)
GI50 (NCI-H522): > 100 µM (inactive)
GI50 (OVCAR-3): > 100 µM (inactive)
GI50 (OVCAR-4): > 10 µM (inactive)
GI50 (OVCAR-8): 86.1 µM (inactive)
GI50 (RPMI-8226): > 100 µM (inactive)
GI50 (RXF 393): > 100 µM (inactive)
GI50 (RXF 631): > 100 µM (inactive)
GI50 (SF-295): > 100 µM (inactive)
GI50 (SF-539): > 100 µM (inactive)
GI50 (SK-MEL-5): > 100 µM (inactive)
GI50 (SN12C): > 100 µM (inactive)
GI50 (SR): > 100 µM (inactive)
GI50 (SW-620): > 100 µM (inactive)
GI50 (TK-10): > 100 µM (inactive)
GI50 (UACC-257): > 10 µM (inactive)
GI50 (UO-31): > 100 µM (inactive)

NC(=O)C#CC(N)=O
GI50 (786-0): 29.2 µM (inactive)
GI50 (A498): > 100 µM (inactive) and 53.1 µM (inactive)
GI50 (A549): 73.3 µM (inactive)
GI50 (ACHN): > 100 µM (inactive)
GI50 (CCRF-CEM): 3.08 µM (inactive) and 1.94 µM (inactive)
GI50 (HCC 2998): > 100 µM (inactive) and 58.3 µM (inactive)
GI50 (HL-60): 2.52 µM (inactive) and 1.71 µM (inactive)
GI50 (HOP-18): 18.2 µM (inactive) and 28.2 µM (inactive)
GI50 (HOP-62): > 100 µM (inactive) and 69.2 µM (inactive)
GI50 (HT-29): 20.8 µM (inactive) and 41.5 µM (inactive)
GI50 (IGROV-1): > 100 µM (inactive) and 67.5 µM (inactive)
GI50 (K562): 2.91 µM (inactive) and 4.66 µM (inactive)
GI50 (LOX IMVI): 14.5 µM (inactive) and 18.3 µM (inactive)
GI50 (LXFL 529): 64.9 µM (inactive)
GI50 (M14): 19.2 µM (inactive)
GI50 (MCF7): 19.3 µM (inactive)
GI50 (Malme-3M): 13.1 µM (inactive) and 7.53 µM (inactive)
GI50 (NCI-H226): > 100 µM (inactive) and 63 µM (inactive)
GI50 (NCI-H23): 58.5 µM (inactive) and > 91.2 µM (inactive)
GI50 (NCI-H522): 21.2 µM (inactive) and 14.2 µM (inactive)
GI50 (NCI/ADR-RES): 7.14 µM (inactive)
GI50 (RPMI-8226): 2.14 µM (inactive)
GI50 (RXF 631): > 100 µM (inactive)
GI50 (SF-268): 60.3 µM (inactive) and 38.9 µM (inactive)
GI50 (SF-295): 13.8 µM (inactive) and 25.2 µM (inactive)
GI50 (SF-539): 24.4 µM (inactive) and 19.5 µM (inactive)
GI50 (SK-MEL-28): 7.08 µM (inactive) and 14 µM (inactive)
GI50 (SK-MEL-2): 21.9 µM (inactive) and 13.7 µM (inactive)
GI50 (SK-OV-3): > 100 µM (inactive) and 108 µM (inactive)
GI50 (SNB-19): > 100 µM (inactive) and 121 µM (inactive)
GI50 (SNB-75): 30.1 µM (inactive) and 42.2 µM (inactive)
GI50 (SNB-78): 54 µM (inactive) and 47.3 µM (inactive)
GI50 (SR): 14.6 µM (inactive)
GI50 (TK-10): 20.8 µM (inactive)
GI50 (UACC-62): 19.4 µM (inactive) and 14.6 µM (inactive)
GI50 (UO-31): 24 µM (inactive) and 28.5 µM (inactive)

Cc1cc(C)nc(NS(=O)(=O)c2ccc(Nc3c4ccccc4nc4c(C(=O)N5CCN(CCO)CC5)cccc34)cc2)n1
GI50 (786-0): > 100 µM (inactive)
GI50 (A498): > 100 µM (inactive)
GI50 (A549): > 100 µM (inactive)
GI50 (ACHN): > 100 µM (inactive)
GI50 (CAKI-1): > 100 µM (inactive)
GI50 (CCRF-CEM): > 100 µM (inactive)
GI50 (COLO 205): > 100 µM (inactive)
GI50 (DLD-1): > 100 µM (inactive)
GI50 (DMS-114): > 100 µM (inactive)
GI50 (DMS-273): > 100 µM (inactive)
GI50 (EKVX): > 100 µM (inactive)
GI50 (HCC 2998): > 100 µM (inactive)
GI50 (HCT-116): > 100 µM (inactive)
GI50 (HCT-15): > 100 µM
GI50 (HL-60): > 100 µM (inactive)
GI50 (HOP-18): > 100 µM (inactive)
GI50 (HOP-62): > 100 µM (inactive)
GI50 (HOP-92): > 100 µM (inactive)
GI50 (HT-29): > 100 µM (inactive)
GI50 (IGROV-1): > 100 µM (inactive)
GI50 (K562): > 100 µM (inactive)
GI50 (KM-20L2): > 100 µM (inactive)
GI50 (KM12): > 100 µM (inactive)
GI50 (LOX IMVI): > 100 µM (inactive)
GI50 (LXFL 529): > 100 µM (inactive)
GI50 (M14): > 100 µM (inactive)
GI50 (M19-MEL): > 100 µM (inactive)
GI50 (MOLT-4): > 100 µM (inactive)
GI50 (Malme-3M): > 100 µM (inactive)
GI50 (NCI-H226): > 100 µM (inactive)
GI50 (NCI-H23): > 100 µM (inactive)
GI50 (NCI-H460): > 100 µM (inactive)
GI50 (OVCAR-3): > 100 µM (inactive)
GI50 (OVCAR-4): > 100 µM (inactive)
GI50 (OVCAR-5): > 100 µM (inactive)
GI50 (OVCAR-8): > 100 µM (inactive)
GI50 (RXF 393): > 100 µM (inactive)
GI50 (SF-268): > 100 µM (inactive)
GI50 (SF-295): > 100 µM (inactive)
GI50 (SF-539): > 100 µM (inactive)
GI50 (SK-MEL-28): > 100 µM (inactive)
GI50 (SK-MEL-2): > 100 µM (inactive)
GI50 (SK-MEL-5): > 100 µM (inactive)
GI50 (SK-OV-3): > 100 µM (inactive)
GI50 (SN12C): > 100 µM (inactive)
GI50 (SNB-19): > 100 µM (inactive)
GI50 (SNB-75): 95.7 µM (inactive)
GI50 (SNB-78): > 100 µM (inactive)
GI50 (SR): > 100 µM (inactive)
GI50 (SW-620): > 100 µM (inactive)
GI50 (TK-10): > 100 µM (inactive)
GI50 (U-251): > 100 µM (inactive)
GI50 (UACC-257): > 100 µM (inactive)
GI50 (UACC-62): > 100 µM (inactive)
GI50 (UO-31): > 100 µM (inactive)
GI50 (XF498): > 100 µM (inactive)
